Where “and” joins values, the source holds several entries; their conditions need not be identical. Equal entries are not always repeated.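 Where inhibition never reached the appropriate level, the endpoint shown equals the highest concentration tested. Otherwise, values were interpolated linearly from a five-concentration, 48-hour dose response in 96-well plates. Here, GI50 denotes the concentration required for 50% inhibition of growth. TGI is the concentration that stops growth completely.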
Tests used:
Test in all cases: DTP human tumour cell line panel, 48 h
[1] = test system: SK-MEL-5 melanoma
[2] = test system: SK-OV-3 ovarian
[3] = test system: OVCAR-8 ovarian
[4] = test system: SW-620 colon
[5] = test system: HOP-92 NSCLC
[6] = test system: KM12 colon
[7] = test system: NCI-H23 lung
[8] = test system: RXF 393 renal
[9] = test system: SNB-19 CNS
[10] = test system: MALME-3M melanoma

Question: With `CC1(C)COC(c2cccnc2/C=N/O)=N1` as the molecule, how does the TGI [1] read?
Answer: Its TGI is greater than 100 µM.

Question: And the TGI [2]?
Answer: Its TGI is greater than 100 µM.

Question: What about the TGI [3] of the same molecule?
Answer: The TGI was greater than 100 µM.

Question: What about the TGI [4] of the same molecule?
Answer: The TGI was greater than 100 µM.

Question: What about the TGI [5] of the same molecule?
Answer: The TGI was greater than 100 µM.

Question: What about the TGI [6] of the same molecule?
Answer: Its TGI is greater than 100 µM.

Question: And the TGI [7]?
Answer: The TGI was greater than 100 µM.

Question: And the TGI [8]?
Answer: Its TGI is greater than 100 µM.

Question: And the TGI [9]?
Answer: Its TGI is greater than 100 µM.

Question: What about the TGI [10] of the same molecule?
Answer: The TGI was greater than 100 µM.

Question: Which results are given for `C=CCCCCC/C=C\[C@H](O)C#CC#C/C=C/CO`?
Answer: GI50 [1]: 38.5 µM; TGI [1]: > 100 µM; GI50 [2]: > 100 µM; TGI [2]: > 100 µM; GI50 [3]: 20.2 µM; TGI [3]: 52 µM; GI50 [4]: 27 µM; TGI [4]: 78.5 µM; GI50 [5]: 52.8 µM; TGI [5]: > 100 µM; GI50 [6]: 18.3 µM; TGI [6]: 33.7 µM; GI50 [7]: 22.6 µM; TGI [7]: 50.9 µM; GI50 [8]: 34.5 µM; TGI [8]: > 100 µM; GI50 [9]: > 100 µM; TGI [9]: > 100 µM; GI50 [10]: 54 µM; TGI [10]: > 100 µM

Question: `O=C(/C=C/c1ccccc1O)c1ccccc1O` was tested. Which TGI [1] did it give?
Answer: Its TGI is greater than 100 µM.

Question: What about the TGI [2] of the same molecule?
Answer: Its TGI is greater than 100 µM.

Question: And the TGI [3]?
Answer: The TGI was greater than 100 µM.

Question: What about the TGI [4] of the same molecule?
Answer: Its TGI is greater than 100 µM.

Question: And the TGI [5]?
Answer: The TGI was greater than 100 µM.

Question: And the TGI [6]?
Answer: Its TGI is greater than 100 µM.

Question: What about the TGI [7] of the same molecule?
Answer: Its TGI is greater than 100 µM.

Question: What about the TGI [8] of the same molecule?
Answer: The TGI was greater than 100 µM.

Question: And the TGI [9]?
Answer: The TGI was greater than 100 µM.

Question: And the TGI [10]?
Answer: The TGI was greater than 100 µM.

Question: How did the GI50 [1] turn out when `COc1ccc(-n2cc(-c3cc(OC)c(OC)c(OC)c3)c(C(=O)C(F)(F)F)c2C)cc1` was run?
Answer: The GI50 was 7.33 µM.

Question: And the TGI [1]?
Answer: Its TGI is greater than 100 µM.

Question: What about the GI50 [2] of the same molecule?
Answer: The GI50 was greater than 100 µM.

Question: What about the TGI [2] of the same molecule?
Answer: The TGI was greater than 100 µM.

Question: What about the GI50 [3] of the same molecule?
Answer: The GI50 was greater than 100 µM.

Question: And the TGI [3]?
Answer: The TGI was greater than 100 µM.

Question: And the GI50 [4]?
Answer: Its GI50 is greater than 100 µM.

Question: What about the TGI [4] of the same molecule?
Answer: The TGI was greater than 100 µM.

Question: What about the GI50 [5] of the same molecule?
Answer: Its GI50 is 2.39 µM.

Question: And the TGI [5]?
Answer: The TGI was 21.5 µM.

Question: What about the GI50 [6] of the same molecule?
Answer: Its GI50 is 32.6 µM.

Question: And the TGI [6]?
Answer: The TGI was greater than 100 µM.

Question: And the GI50 [7]?
Answer: The GI50 was 8.53 µM.

Question: What about the TGI [7] of the same molecule?
Answer: The TGI was greater than 100 µM.

Question: And the GI50 [8]?
Answer: Its GI50 is greater than 100 µM.

Question: What about the TGI [8] of the same molecule?
Answer: The TGI was greater than 100 µM.

Question: And the GI50 [9]?
Answer: The GI50 was greater than 100 µM.

Question: And the TGI [9]?
Answer: The TGI was greater than 100 µM.

Question: And the GI50 [10]?
Answer: The GI50 was greater than 100 µM.

Question: What about the TGI [10] of the same molecule?
Answer: Its TGI is greater than 100 µM.

Question: What does the source list for `O/N=C/C1C(OCc2ccccc2)C(OCc2ccccc2)C(OCc2ccccc2)CN1Cc1ccccc1` (centres undefined)?
Answer: TGI [1]: 23.9 µM; GI50 [2]: 22.7 µM and > 100 µM; TGI [2]: 51.3 µM and > 100 µM; TGI [3]: 39.9 µM and > 100 µM; TGI [4]: > 100 µM; GI50 [5]: 13.6 µM and 1.99 µM; TGI [5]: 33.1 µM and 9.16 µM; GI50 [6]: 14.4 µM and 2.86 µM; TGI [6]: 47.2 µM and 19.6 µM; GI50 [7]: 14.1 µM and 2.78 µM; TGI [7]: 41.7 µM and 26.6 µM; TGI [8]: 46.1 µM; TGI [9]: > 100 µM; TGI [10]: 97.6 µM and 33.6 µM

Question: `CC(C)N(C(=O)C12C3C4C5(C#N)C3C1(C#N)C5C42I)C(C)C` (centres undefined) was tested. Which TGI [1] did it give?
Answer: Its TGI is greater than 100 µM.

Question: And the TGI [2]?
Answer: Its TGI is greater than 100 µM.

Question: And the TGI [3]?
Answer: The TGI was greater than 100 µM.

Question: And the TGI [4]?
Answer: The TGI was greater than 66 µM.

Question: What about the TGI [5] of the same molecule?
Answer: The TGI was greater than 100 µM.

Question: What about the TGI [6] of the same molecule?
Answer: The TGI was greater than 100 µM.

Question: What about the TGI [7] of the same molecule?
Answer: Its TGI is greater than 100 µM.

Question: What about the TGI [8] of the same molecule?
Answer: Its TGI is greater than 100 µM.

Question: What about the TGI [9] of the same molecule?
Answer: Its TGI is greater than 100 µM.

Question: And the TGI [10]?
Answer: Its TGI is greater than 100 µM.

Question: How did the GI50 [1] turn out when `CCCCCCCCCCCCCC1=NC(C)(C)CN1C(C)C` was run?
Answer: The GI50 was 1.67 µM.

Question: What about the TGI [1] of the same molecule?
Answer: Its TGI is 3.03 µM.

Question: And the GI50 [2]?
Answer: The GI50 was 1.79 µM.

Question: And the TGI [2]?
Answer: The TGI was 3.17 µM.

Question: And the GI50 [3]?
Answer: Its GI50 is 1.78 µM.

Question: And the TGI [3]?
Answer: Its TGI is 3.42 µM.

Question: And the GI50 [4]?
Answer: Its GI50 is 1.58 µM.

Question: And the TGI [4]?
Answer: The TGI was 2.92 µM.

Question: What about the GI50 [5] of the same molecule?
Answer: The GI50 was 0.655 µM.

Question: What about the TGI [5] of the same molecule?
Answer: The TGI was 2.19 µM.

Question: And the GI50 [6]?
Answer: The GI50 was 1.65 µM.

Question: What about the TGI [6] of the same molecule?
Answer: Its TGI is 3.01 µM.

Question: What about the GI50 [7] of the same molecule?
Answer: Its GI50 is 1.67 µM.

Question: What about the TGI [7] of the same molecule?
Answer: The TGI was 3.11 µM.

Question: And the GI50 [8]?
Answer: Its GI50 is 1.62 µM.

Question: And the TGI [8]?
Answer: The TGI was 3.11 µM.

Question: What about the GI50 [9] of the same molecule?
Answer: Its GI50 is 1.79 µM.

Question: What about the TGI [9] of the same molecule?
Answer: Its TGI is 3.18 µM.

Question: What about the GI50 [10] of the same molecule?
Answer: Its GI50 is 1.7 µM.

Question: What about the TGI [10] of the same molecule?
Answer: Its TGI is 3.41 µM.

Question: For `COc1ccc2c(c1)CCCC(Br)C2=O` (centres undefined), which TGI [1] is on record?
Answer: Its TGI is 9.22 µM.

Question: What about the TGI [2] of the same molecule?
Answer: Its TGI is 14.3 µM.

Question: What about the TGI [3] of the same molecule?
Answer: Its TGI is greater than 31.9 µM.

Question: And the TGI [4]?
Answer: Its TGI is greater than 33.3 µM.

Question: And the TGI [5]?
Answer: Its TGI is 23.3 µM.

Question: And the TGI [6]?
Answer: The TGI was 12.8 µM.

Question: What about the TGI [7] of the same molecule?
Answer: Its TGI is 26.3 µM.

Question: What about the TGI [8] of the same molecule?
Answer: Its TGI is 17.7 µM.

Question: And the TGI [9]?
Answer: Its TGI is 22.3 µM.

Question: And the TGI [10]?
Answer: Its TGI is 21.5 µM.

Question: Which results are given for `CCCCCCCCCCCCOC1C(C(COC2OC(C3COC(C)(C)O3)C3OC(C)(C)OC23)NC(=O)Nc2ccc(C(=O)O)cc2)OC2OC(C)(C)OC21` (centres undefined)?
Answer: GI50 [1]: 1.75 µM; TGI [1]: 3.4 µM; GI50 [2]: 11.7 µM; TGI [2]: 24 µM; GI50 [3]: 3.13 µM; TGI [3]: 12 µM; GI50 [4]: 3.26 µM; TGI [4]: 11 µM; GI50 [5]: 2.55 µM; TGI [5]: 8.04 µM; GI50 [6]: 2.22 µM; TGI [6]: 4.36 µM; GI50 [7]: 2.64 µM; TGI [7]: 6.83 µM; GI50 [8]: 2.26 µM; TGI [8]: 4.05 µM; GI50 [9]: 4.41 µM; TGI [9]: 14.6 µM; GI50 [10]: 2.88 µM; TGI [10]: 6.91 µM

Source: PubChem BioAssay (NCI)
